Data reported in patent US4952580A, “Pesticidal polyhaloalkene derivatives” (priority 1988, dated 1990).
Like-named read-outs stand apart in the source and are kept apart here.

Columns and labels:
[1] = tested on: root-knot nematode (Meloidogyne incognita); test: Initial Root-Knot Nematicidal Activity; type: in vivo; conditions: 336 h, read-out: Percent Control; for pest or weed control at 0.625 ppm: Table 2, Application Rate 0.625 ppm; for pest or weed control at 1.25 ppm: Table 2, Application Rate 1.25 ppm; for pest or weed control at 0.312 ppm: Table 2, Application Rate 0.312 ppm
Procedure: (§1) Compounds of this invention were tested as follows for nematicidal and anthelmintic activity as dust formulations (initial and residual activity) and as acetone/water formulations (systemic activity). The formulations are described above.
The activity against root-knot nematode (Meloidogyne incognita) was determined by incorporating the compound of the invention in nematode infested soil at rates in the range of 10 ppm to 0.078 ppm of compound. Several tomato or cucumber seedlings were planted in the nematode infested soil. Two weeks after planting the test pots were evaluated to ascertain the degree of galling (swelling) on the roots of the plants, indicating the control provided by the test chemical.
The results expressed as precent control (determined by knot index) are set forth as averages in Table 2 (appended). Knot index is a numerical designation assigned at evaluation, having the following meanings:
Percent control is related to knot index as follows:
When the Knot Index is between 0 and 1 it is further subdivided as follows to indicate how close the percent control is to 75% or 100%: […]

root-knot nematode [2] = test: Systemic Activity (basipetal, foliar spray) against root-knot nematode; type: in vivo, Meloidogyne incognita; conditions: 336 h, read-out: Percent Control; for pest or weed control at 2000 ppm: foliar, Table 8, rate 2000 ppm
Procedure: as §1
Compounds of the invention were tested for basipetal systemic activity against the root-knot nematode. In this test, tomato plants are grown in 10.2 cm diameter fiber pots containing steam-pasteurized soil mix (50%, soil, 50% sand) until 4-6 true leaves appear. Three of the pots are then placed on a turntable in a spray hood and the plants sprayed with 50 ml of water/acetone solution containing the test compound. The soil surface is covered during the spraying to prevent spraying of the soil. After treatment, the potted plants are placed in a lighted drying chamber. The plants are then grown in a growth chamber at 25° C. for three days and inoculated with a standard nematode culture by incorporating the inoculum into the top cm of soil in the pots. The plants are returned to the growth chamber for about two weeks at which time the pots are allowed to dry until the plants begin to wilt. The roots are shaken free of soil and the degree of galling (swelling) noted as compared to galling of untreated control plants. The results are expressed as Knot Index and Percent Control as defined in the initial root-knot nematode activity tests reported above in Table 2.

root-knot nematode [3] = test: Residual Root-Knot Nematicidal Activity; type: in vivo, Meloidogyne incognita; conditions: Table 3a, 5% dust, 5 ppm, read-out: Percent Control
Procedure: as §1
The ability of nematicidal compounds of the invention to control root-knot nematode infestations in soil over a period of time after treatment was evaluated. Dust formulations of test compound (5%) were incorporated into soil samples at test compound rates of 5 and 10 ppm. Subsequently, the treated soil samples were inoculated with nematode inoculum at weekly intervals, and Knot Index and Percent Control determined on seedlings planted in the soil samples. Specifically, soil treated with test compound was placed in 7.6 cm diameter fiber pots and stored in a greenhouse. At one, two and four weeks post-treatment, the appropriate number of pots was infested with root-knot nematode eggs and larvae. A cucumber or tomato seedling was planted in each pot and evaluated approximately two weeks after the soil infestation to obtain the test results reported in Tables 3 and 3a appended.

lesion nematode = test: Lesion Nematode Test; type: in vivo; conditions: Table 5, read-out: Percent Control; for pest or weed control at 2.5 ppm: rate 2.5 ppm
Procedure: as §1
The procedure was substantially the same as in the stunt nematode test described above except that pea seedlings were used. The results (Table 5 appended) show good control with many of the compounds at the application rates tested as compared with untreated samples (no control). "Percent Control" is defined as follows: [formula]

stunt nematode = test: Stunt Nematode Test; type: in vivo; conditions: 672 h, Table 4a; rate 5 ppm; read-out: Percent Control
Procedure: as §1
The procedure was substantially the same as in the […] seedling, with subsequent inoculation of the soil with combined larvae and adult stunt nematodes. The samples were evaulated approximately four weeks after infestation. […] "Percent control" means the difference between average population counts between untreated and treated samples, divided by average population count of untreated sample, multiplied by 100.

Caenorhabditis elegans = test: C. Elegans Nematode Screening Test and Evaluation (in-vitro); conditions: Caenorhabditis elegans; for inhibition at 5 ppm / inhibition at 1.25 ppm / inhibition at 2.5 ppm: read-out: Percent Inhibition of Reproduction; for mortality at 5 ppm / mortality at 1.25 ppm / mortality at 2.5 ppm: read-out: Percent Mortality
Procedure: This in-vitro test using the free-living nematode Caenorhabditis elegans, is a modification of the assay developed by Simpkin and Coles, J. Chem. Tech. […] One milliliter of a test medium consisting of 5 mg ampicillin, 10,000 units of mycostatin and 10 ml of a dense suspension of Escherichia coli per 100 ml of a buffer solution, was pipetted into each well of a 24-well microtiter plate. The candidate nematicide, suspended at the appropriate concentration in dimethylsulfoxide, was added to the wells in […] volumes. Each rate of application was replicated two to three times. After thorough mixing of the contents of each well, 50 to 100 μl of a nematode suspension in a buffer was added so that each well received 10-15 nematodes. After the nematodes were added, the microtiter plates were incubated at 20° C. for 5-6 days.
The effect of the candidate nematicide on the survival and the reproduction of C. elegans was then evaluated by comparison of the level of population developed in the treated wells with that in untreated wells. Specific effects on population development, such as reduced egg hatch or molting disruption, were noted if they were evident.

root-knot nematode [4] = test: Soil Mobility against root-knot nematode; type: in vivo, Meloidogyne incognita; conditions: 336 h, Table 7a, 5% dust, 5 ppm, read-out: Percent Control
Procedure: as §1
The ability of nematicidal compounds of the invention to move through nematode-infested soil […] infested soil, and subsequently eluting the soil with 15 cm of water (equivalent to 15 cm of rainfall) into a series of two or more pots of untreated, but nematode-infested, soil. Specifically, the pots were 8 cm diameter plastic pots containing a 10 cm^3 layer of sand over a coarse grade filter paper disc. Sufficient soil was placed over the sand to fill the pots, and a second filter paper disc was placed over the soil. Each test compound-treated pot was nested over a series of two or more pots containing untreated, but nematode-infested soil, also containing sand filter paper discs as described for the treated soil pots. Fifteen cm of water was slowly dripped into the top pots and the pots were allowed to drain for 16-18 hours to remove excess water. The top filter of each pot was then removed and the pots were planted with a cucumber or tomato seedling. […] "Knot Index" and "Percent Control" are as defined in the initial root-knot nematode tests above.

[5] = Table 2, Application Rate 2.5 ppm

SMILES | pest or weed control at 0.625 ppm [1] [%] | pest or weed control at 1.25 ppm [1] [%] | pest or weed control at 2000 ppm (root-knot nematode [2]) [%] | pest or weed control at 2.5 ppm [1, 5] [%] | pest or weed control at 0.312 ppm [1] [%] | pest or weed control at 2.5 ppm (lesion nematode) [%] | pest or weed control at 5 ppm (stunt nematode) [%] | inhibition at 5 ppm (Caenorhabditis elegans; Table 9 screen) [%] | mortality at 5 ppm (Caenorhabditis elegans; Table 9 screen) [%] | mortality at 5 ppm (Caenorhabditis elegans; Table 10 evaluation) [%] | inhibition at 1.25 ppm (Caenorhabditis elegans; Table 10 evaluation) [%] | mortality at 1.25 ppm (Caenorhabditis elegans; Table 10 evaluation) [%] | inhibition at 2.5 ppm (Caenorhabditis elegans; Table 10 evaluation) [%] | mortality at 2.5 ppm (Caenorhabditis elegans; Table 10 evaluation) [%] | other results
FC(F)=C(F)CCSc1nnc(-c2ccccc2)o1 [Compound 16, 2-phenyl-5-(3,4,4-trifluoro-3-butenylthio)-1,3,4-oxadiazole] | 25 | 44 | 67 | – | – | – | – | – | – | – | – | – | – | – | pest or weed control at 0.313 ppm ([1]; Table 2, Application Rate 0.313 ppm): 0%; pest or weed control at 2.5 ppm [1]: 95%
FC(F)=C(F)CCSc1nnc(-c2ccc(Cl)cc2)o1 [Compound 17, 2-(4-chlorophenyl)-5-(3,4,4-trifluoro-3-butenylthio)-1,3,4-oxadiazole] | – | – | 42 | 100 | – | – | – | – | – | – | – | – | – | – | pest or weed control at 5 ppm ([1]; Table 2, Application Rate 5.0 ppm): 100%; pest or weed control at 10 ppm ([1]; Table 2, Application Rate 10.0 ppm): 100%
FC(F)=C(F)CCSc1nnc(SCc2ccccc2)s1 [Compound 32, 2-phenylmethylthio-5-(3,4,4-trifluoro-3-butenylthio)-1,3,4-thiadiazole] | 97 | 99 | 25 | 100 | 78 | 28 | 84 | 100 | 100 | 8 | 25 | 0 | 42 | 0 | pest or weed control at 5 ppm (root-knot nematode [3]; 168 h, inoculation 1 week post-treatment): 99%; pest or weed control at 5 ppm (root-knot nematode [3]; 336 h, inoculation 2 weeks post-treatment): 99%; pest or weed control at 5 ppm (root-knot nematode [3]; 672 h, inoculation 4 weeks post-treatment): 82%; pest or weed control at 0.078 ppm ([1]; Table 2, Application Rate 0.078 ppm): 8%; pest or weed control at 0.156 ppm ([1]; Table 2, Application Rate 0.156 ppm): 31%; pest or weed control at 1.25 ppm (lesion nematode; rate 1.25 ppm): 0%; pest or weed control at 0.625 ppm (lesion nematode; rate .625 ppm): 0%; pest or weed control at 5 ppm (root-knot nematode [4]; BOTTOM container): 25%; pest or weed control at 5 ppm (root-knot nematode [4]; MIDDLE container): 75%; pest or weed control at 5 ppm (root-knot nematode [4]; TOP container): 99%
FC(F)=C(F)CCSc1nnc(SCc2ccc(Br)cc2)s1 [Compound 33, 2-(4-bromophenylmethylthio)-5-(3,4,4-trifluoro-3-butenylthio)-1,3,4-thiadiazole] | 70 | 84 | – | 97 | 38 | 46 | 52 | 100 | 100 | 100 | 100 | 100 | 100 | 100 | pest or weed control at 2500 ppm (root-knot nematode [2]; Table 8, rate 2500 ppm): 17%
